Assay results taken from patent publication US20200113913A1, “METHODS FOR HAIR FOLLICLE STEM CELL PROLIFERATION” (Frequency Therapeutics, Inc., priority 2017, published 2020).
Entries after “also recorded” stand apart in the source; their conditions may differ.

Columns and labels:
GSK3-alpha = GSK3-alpha (Homo sapiens, UniProt P49840); details: cited from earlier work
GSK3-beta = GSK3-beta (Homo sapiens, UniProt P49841); details: cited from earlier work
[1] = system: Dermal Papilla (DP) cells; assay: Stem Cell Proliferation Assay using dermal papilla; format: cell-based; details: Purmorphamine 1 μM; for Alkaline Phosphatase (Alp) colonies: Example 4, FIG. 4
Protocol: Dermal Papilla (DP) proliferation cell culture assay refers to a cell culture method to quantify the number of Dermal Papilla (DP) spheroids, size of DP spheroids, or number of DP cells in cell culture, which is measured at the end of the assay. DP cells refer to cells that express Alkaline Phosphatase (AP), and/or Versican, and/or Vimentin, and/or Sox2, and/or CD133.
The protocol for the Stem Cell Proliferation Assay using dermal papilla is as follows:
Basal media: DMEM/high-glucose medium and F12, supplemented with N2 1×, B27 1×, Streptomycin sulfate (100 μg/ml), Amphotericin B ([…]), and 1 mM Hepes.
Microdissection is used to remove intact hair follicles from a specimen. Intact follicles are incubated for 40 min at 37° C. in TrypLE™ (Thermo Fisher Scientific) with 1 mg/ml collagenase type 1 (sterilized using 0.2 μm syringe filter). The treated follicles are then triturated >30× using a 200 μl pipette tip. The volume is adjusted up to 1 ml with 1×PBS. The treated follicles are then passed through a 40 μm cell strainer to obtain a single cell suspension.
Twenty μl are applied to a cell counter to determine the number of cells per 1 ml. The remaining cell suspension is spun down at 1,000×g for 5 min at 4° C.
Standard media is prepared supplemented with growth factors (IGF, EGF, and FGF2 at 50 ng/ml). The cells are suspended in standard media with growth factors at 120,000 cells/ml and 250 μl (30,000 cells) are applied to each well of a 24-well plate (Corning Costar, 3534).
Each treatment condition is prepared at 2× concentration, enough for 250 μl/well for a final dilution of 1× in 500 μl. The final DMSO concentration is at about 0.2% for all.
250 μl 2× treatment media is applied to each well to have a final media volume per well of 500 μl. The final treatment concentration per well is 1×. The final cell density is 30,000 cells per well. […]
EVOS® transmitted light images are taken at 0, 5, 7, and 10 days in culture.
Spheroids are collected at 10 days in culture for immunoblotting, qPCR, or flow cytometry. Alternatively, spheroids may be applied to glass bottom dishes coated with poly-1-lysine for alkaline phosphatase (AP) staining, 5-ethynyl-2′-deoxyuridine (EdU) staining, and/or immunofluorescence for DP markers (e.g. Vimentin, Sox2, Versican, CD133) for microscopy.
Alternatively, cells or colonies may be assessed using microscopy to compare DP properties across conditions.

[2] = Example 1, FIG. 1, 8 days in culture, CHIR99021 4 μM, alone or combined
[3] = Example 2, FIG. 2, 10 days in culture, Compound I-7 10 nM, alone or combined
[4] = 10 days in culture, Compound I-7 10 nM, alone or combined
[5] = Example 3, FIG. 3, SAG 3 nM, SAG HCl 500 nM, alone or with Compound I-7 10 nM

GSK3-alpha, sequence (P49840 whole entry, species assumed): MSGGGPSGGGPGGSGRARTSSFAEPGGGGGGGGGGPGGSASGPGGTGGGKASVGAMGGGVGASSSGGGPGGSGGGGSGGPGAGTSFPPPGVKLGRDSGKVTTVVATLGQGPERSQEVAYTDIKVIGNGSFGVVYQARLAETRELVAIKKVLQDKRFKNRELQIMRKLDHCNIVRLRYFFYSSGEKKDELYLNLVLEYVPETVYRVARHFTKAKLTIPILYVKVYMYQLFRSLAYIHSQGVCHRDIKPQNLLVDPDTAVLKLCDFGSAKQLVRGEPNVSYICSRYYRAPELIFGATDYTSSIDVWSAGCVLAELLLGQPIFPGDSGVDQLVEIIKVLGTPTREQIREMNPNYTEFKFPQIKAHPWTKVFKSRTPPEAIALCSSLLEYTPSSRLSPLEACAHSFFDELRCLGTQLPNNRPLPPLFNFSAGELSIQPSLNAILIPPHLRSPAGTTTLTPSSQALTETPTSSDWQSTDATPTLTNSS
GSK3-beta, sequence (P49841 whole entry, species assumed): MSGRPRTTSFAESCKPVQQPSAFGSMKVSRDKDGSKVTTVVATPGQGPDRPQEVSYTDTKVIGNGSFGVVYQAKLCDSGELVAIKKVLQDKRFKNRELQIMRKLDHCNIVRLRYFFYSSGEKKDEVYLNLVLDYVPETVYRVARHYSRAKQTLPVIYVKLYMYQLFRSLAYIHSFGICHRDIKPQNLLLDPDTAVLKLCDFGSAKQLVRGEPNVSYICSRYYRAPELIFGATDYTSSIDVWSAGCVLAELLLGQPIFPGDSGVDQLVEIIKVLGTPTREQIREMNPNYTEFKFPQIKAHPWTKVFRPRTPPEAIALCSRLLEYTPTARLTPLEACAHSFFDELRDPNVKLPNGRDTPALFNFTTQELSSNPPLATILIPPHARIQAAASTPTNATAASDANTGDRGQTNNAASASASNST

For `N#Cc1ccc2[nH]c(O)c(-c3ccc(CN4CCOCC4)cn3)c2c1` [AZD1080], the “Potency in nM GSK3-alpha” value (GSK3-alpha) is given as 6.9 nM.

In the case of `COc1ccccc1[C@@H]1C2=C(CC(C)(C)CC2=O)Nc2n[nH]c(C(F)(F)F)c21` [BRD1172], the “Potency in nM GSK3-alpha” value (GSK3-alpha) is given as 3 nM and the “Potency in nM GSK3-beta” value (GSK3-beta) is given as 10 nM.

For `CC1(C)CC(=O)C2=C(C1)Nc1n[nH]c(C(F)(F)F)c1[C@]2(C)c1ccccc1` [BRD1652], the “Potency in nM GSK3-alpha” value (GSK3-alpha) is given as 0.4 nM and the “Potency in nM GSK3-beta” value (GSK3-beta) is given as 4 nM.

In the case of `Cc1c[nH]c(-c2cnc(NCCNc3ccc(C#N)cn3)nc2-c2ccc(Cl)cc2Cl)n1` [CHIR99021], the “DP colonies by light microscopy” value [1, 2] is reported as “more abundant colonies than FIG. 1A; also recorded: more abundant colonies than DP cells treated in control conditions”.

With `O=C1NC(=O)C(c2cnc3ccccn23)=C1c1cn2c3c(cc(F)cc13)CN(C(=O)N1CCC(F)(F)CC1)CC2` [Compound I-7, 3-(2-(4,4-difluoropiperidine-1-carbonyl)-9-fluoro-1,2,3,4-tetrahydro-[1,4]diazepino[6,7,1-hi]indol-7-yl)-4-(imidazo[1,2-a]pyridin-3-yl)-1H-pyrrole-2,5-dione] the “DP colonies by light microscopy” value [1, 3] was “more abundant colonies than FIG. 2A; also recorded: more abundant colonies than DP cells treated in control conditions” and the “Alkaline Phosphatase (Alp) colonies” value [1, 4] was “small Alp colonies; also recorded: few Alp colonies”.

For `Cc1ccc(C(=O)Nc2c[nH]nc2C(=O)NCCCOC(C)C)cn1` [GSK-3b XXII], the “Potency in nM GSK3-alpha” value (GSK3-alpha) is given as 2.3 nM.

In the case of `c1ccc2c(Oc3nc(Nc4ccc(N5CCOCC5)cc4)c4ncn(C5CCCCC5)c4n3)cccc2c1` [Purmorphamine], the “DP colonies by light microscopy” value [1, 2] is reported as “slightly larger and more abundant colonies than FIG. 1A; also recorded: slightly larger and more abundant colonies than DP cells treated in control conditions”, the “DP colonies by light microscopy” value [1, 3] is reported as “slightly larger and more abundant colonies than FIG. 2A; also recorded: slightly larger and more abundant colonies than DP cells treated in control conditions” and the “DP colonies by light microscopy” value [1, 5] is reported as “form colonies”. The “Alkaline Phosphatase (Alp) colonies” value [1, 4] was “few Alp colonies”.

With `CNC1CCC(N(Cc2cccc(-c3ccncc3)c2)C(=O)c2sc3ccccc3c2Cl)CC1` (centres unmarked) [SAG] the “DP colonies by light microscopy” value [1, 5] was “form colonies”.
